# Results as given in patent publication US10844032B2, “Substituted benzofuran, benzothiophene and indole Mcl-1 inhibitors” (Vanderbilt University, priority 2012, dated 2020).
# pKi: −log10 of the molar value.
# Molecular target: recombinant Mcl-1 (residues 172-327) (Homo sapiens (Human), UniProt Q07820)
# Assay: Bak peptide fluorescence polarization anisotropy competition assay, Mcl-1
# Assay type: binding
# Conditions: Table 2, Ki range; FITC-Bak peptide 10 nM, Mcl-1 14 nM; read-out: Ki for inhibition of Mcl-1
# Chain of recombinant Mcl-1 (residues 172-327) (Q07820 172-327): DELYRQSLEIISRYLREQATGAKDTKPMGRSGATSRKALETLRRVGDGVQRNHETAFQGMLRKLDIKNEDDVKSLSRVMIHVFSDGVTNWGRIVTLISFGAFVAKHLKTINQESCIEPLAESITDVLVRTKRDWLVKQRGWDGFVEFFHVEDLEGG
row,pKi,Compound
1,≥ 7.00,"Cc1cc(OCCCc2c(C(=O)NS(=O)(=O)CCNC(=O)[C@@H]3Cc4ccccc4N3)[nH]c3cc(Cl)ccc23)cc(C)c1Cl [Example 237, (S)-6-chloro-3-(3-(4-chloro-3,5-dimethylphenoxy)propyl)-N-((2-(indoline-2-carboxamido)ethyl)sulfonyl)-1H-indole-2-carboxamide]"
2,≥ 7.00,"Cc1cc(OCCCc2c(C(=O)NS(=O)(=O)CCNC(=O)C(C)C)[nH]c3cc(Cl)ccc23)cc(C)c1Cl [Example 253, 6-chloro-3-(3-(4-chloro-3,5-dimethylphenoxy)propyl)-N-((2-isobutyramidoethyl)sulfonyl)-1H-indole-2-carboxamide]"

# Same assay, conditions: read-out: Ki for inhibition of Mcl-1
row,Compound,pKi
1,"Cc1cc(OCCCc2c(C(=O)NS(=O)(=O)CCNC(=O)Cc3cn(C)c4ccccc34)[nH]c3cc(Cl)ccc23)cc(C)c1Cl [Example 235, 6-chloro-3-(3-(4-chloro-3,5-dimethylphenoxy)propyl)-N-((2-(2-(1-methyl-1H-indol-3-yl)acetamido)ethyl)sulfonyl)-1H-indole-2-carboxamide]",6.52 to 7.00
2,"Cc1cc(OCCCc2c(C(=O)NS(=O)(=O)CCNC(=O)c3ccc4c(ccn4C)c3)[nH]c3cc(Cl)ccc23)cc(C)c1Cl [Example 236, 6-chloro-3-(3-(4-chloro-3,5-dimethylphenoxy)propyl)-N-((2-(1-methyl-1H-indole-5-carboxamido)ethyl)sulfonyl)-1H-indole-2-carboxamide]",6.52 to 7.00
3,"Cc1cc(OCCCc2c(C(=O)NS(=O)(=O)CCNC(=O)[C@@H]3Cc4ccccc4N3C)[nH]c3cc(Cl)ccc23)cc(C)c1Cl [Example 238, (S)-6-chloro-3-(3-(4-chloro-3,5-dimethylphenoxy)propyl)-N-((2-(1-methylindoline-2-carboxamido)ethyl)sulfonyl)-1H-indole-2-carboxamide]",6.52 to 7.00
4,"O=C(NCCS(=O)(=O)NC(=O)c1[nH]c2cc(Cl)ccc2c1CCCOc1cccc2ccccc12)c1ccc2cc[nH]c2c1 [Example 239, N-((2-(1H-indole-6-carboxamido)ethyl)sulfonyl)-6-chloro-3-(3-(naphthalen-1-yloxy)propyl)-1H-indole-2-carboxamide]",6.30 to 6.52
5,"O=C(CCc1ccccc1)NCCS(=O)(=O)NC(=O)c1[nH]c2cc(Cl)ccc2c1CCCOc1cccc2ccccc12 [Example 240, 6-chloro-3-(3-(naphthalen-1-yloxy)propyl)-N-((2-(3-phenylpropanamido)ethyl)sulfonyl)-1H-indole-2-carboxamide]",6.30 to 6.52
6,"Cc1cc(OCCCc2c(C(=O)NS(=O)(=O)CCNC(=O)c3cccn3Cc3ccccc3)[nH]c3cc(Cl)ccc23)cc(C)c1Cl [Example 241, N-((2-(1-benzyl-1H-pyrrole-2-carboxamido)ethyl)sulfonyl)-6-chloro-3-(3-(4-chloro-3,5-dimethylphenoxy)propyl)-1H-indole-2-carboxamide]",6.52 to 7.00
7,"Cc1cc(OCCCc2c(C(=O)NS(=O)(=O)CCNC(=O)c3cccn3Cc3ccc(F)cc3)[nH]c3cc(Cl)ccc23)cc(C)c1Cl [Example 242, 6-chloro-3-(3-(4-chloro-3,5-dimethylphenoxy)propyl)-N-((2-(1-(4-fluorobenzyl)-1H-pyrrole-2-carboxamido)ethyl)sulfonyl)-1H-indole-2-carboxamide]",6.52 to 7.00
8,"Cc1cc(OCCCc2c(C(=O)NS(=O)(=O)CCNC(=O)c3cccn3Cc3cccc(Cl)c3)[nH]c3cc(Cl)ccc23)cc(C)c1Cl [Example 243, 6-chloro-3-(3-(4-chloro-3,5-dimethylphenoxy)propyl)-N-((2-(1-(3-chlorobenzyl)-1H-pyrrole-2-carboxamido)ethyl)sulfonyl)-1H-indole-2-carboxamide]",6.30 to 6.52
9,"Cc1ccccc1Cn1cccc1C(=O)NCCS(=O)(=O)NC(=O)c1[nH]c2cc(Cl)ccc2c1CCCOc1cc(C)c(Cl)c(C)c1 [Example 244, 6-chloro-3-(3-(4-chloro-3,5-dimethylphenoxy)propyl)-N-((2-(1-(2-methylbenzyl)-1H-pyrrole-2-carboxamido)ethyl)sulfonyl)-1H-indole-2-carboxamide]",6.30 to 6.52

# The remaining lines, values ahead:
row,pKi,Compound
1,6.52 to 7.00,"Cc1cccc(Cn2cccc2C(=O)NCCS(=O)(=O)NC(=O)c2[nH]c3cc(Cl)ccc3c2CCCOc2cc(C)c(Cl)c(C)c2)c1 [Example 245, 6-chloro-3-(3-(4-chloro-3,5-dimethylphenoxy)propyl)-N-((2-(1-(3-methylbenzyl)-1H-pyrrole-2-carboxamido)ethyl)sulfonyl)-1H-indole-2-carboxamide]"
2,6.52 to 7.00,"Cc1cc(OCCCc2c(C(=O)NS(=O)(=O)CCNC(=O)c3cccn3Cc3cccc(F)c3)[nH]c3cc(Cl)ccc23)cc(C)c1Cl [Example 246, 6-chloro-3-(3-(4-chloro-3,5-dimethylphenoxy)propyl)-N-((2-(1-(3-fluorobenzyl)-1H-pyrrole-2-carboxamido)ethyl)sulfonyl)-1H-indole-2-carboxamide]"
3,6.52 to 7.00,"COc1cccc(Cn2cccc2C(=O)NCCS(=O)(=O)NC(=O)c2[nH]c3cc(Cl)ccc3c2CCCOc2cc(C)c(Cl)c(C)c2)c1 [Example 247, 6-chloro-3-(3-(4-chloro-3,5-dimethylphenoxy)propyl)-N-((2-(1-(3-methoxybenzyl)-1H-pyrrole-2-carboxamido)ethyl)sulfonyl)-1H-indole-2-carboxamide]"
4,6.52 to 7.00,"Cc1cc(OCCCc2c(C(=O)NS(=O)(=O)CCNC(=O)c3cccn3Cc3ccccc3F)[nH]c3cc(Cl)ccc23)cc(C)c1Cl [Example 248, 6-chloro-3-(3-(4-chloro-3,5-dimethylphenoxy)propyl)-N-((2-(1-(2-fluorobenzyl)-1H-pyrrole-2-carboxamido)ethyl)sulfonyl)-1H-indole-2-carboxamide]"
5,6.52 to 7.00,"COc1ccc(Cn2cccc2C(=O)NCCS(=O)(=O)NC(=O)c2[nH]c3cc(Cl)ccc3c2CCCOc2cc(C)c(Cl)c(C)c2)cc1 [Example 249, 6-chloro-3-(3-(4-chloro-3,5-dimethylphenoxy)propyl)-N-((2-(1-(4-methoxybenzyl)-1H-pyrrole-2-carboxamido)ethyl)sulfonyl)-1H-indole-2-carboxamide]"
6,6.52 to 7.00,"Cc1cc(OCCCc2c(C(=O)NS(=O)(=O)CCN3C(=O)c4ccccc4C3=O)[nH]c3cc(Cl)ccc23)cc(C)c1Cl [Example 250, 6-chloro-3-(3-(4-chloro-3,5-dimethylphenoxy)propyl)-N-((2-(1,3-dioxoisoindolin-2-yl)ethyl)sulfonyl)-1H-indole-2-carboxamide]"
7,6.52 to 7.00,"CC(=O)NCCS(=O)(=O)NC(=O)c1[nH]c2cc(Cl)ccc2c1CCCOc1cc(C)c(Cl)c(C)c1 [Example 251, N-((2-acetamidoethyl)sulfonyl)-6-chloro-3-(3-(4-chloro-3,5-dimethylphenoxy)propyl)-1H-indole-2-carboxamide]"
8,6.52 to 7.00,"CCC(=O)NCCS(=O)(=O)NC(=O)c1[nH]c2cc(Cl)ccc2c1CCCOc1cc(C)c(Cl)c(C)c1 [Example 252, 6-chloro-3-(3-(4-chloro-3,5-dimethylphenoxy)propyl)-N-((2-propionamidoethyl)sulfonyl)-1H-indole-2-carboxamide]"
9,6.52 to 7.00,"Cc1cc(OCCCc2c(C(=O)NS(=O)(=O)CCNC(=O)C(F)(F)F)[nH]c3cc(Cl)ccc23)cc(C)c1Cl [Example 254, 6-chloro-3-(3-(4-chloro-3,5-dimethylphenoxy)propyl)-N-((2-(2,2,2-trifluoroacetamido)ethyl)sulfonyl)-1H-indole-2-carboxamide]"
